Assays:
Experiment in all cases: pIC50, kinobeads binding competition
Settings in all cases: cell material: Jurkat lysate
MAP4K5 = MAP4K5 (UniProt Q9Y4K4)
RPS6KA4 = RPS6KA4 (UniProt O75676)
UniProt Q9Y2I7 = target: UniProt Q9Y2I7
SRPK1 = SRPK1 (UniProt Q96SB4)
UniProt P49841 = target: UniProt P49841
EPHB6 = target: T1, EPHB6 (UniProt O15197)
T1 sequence (whole entry): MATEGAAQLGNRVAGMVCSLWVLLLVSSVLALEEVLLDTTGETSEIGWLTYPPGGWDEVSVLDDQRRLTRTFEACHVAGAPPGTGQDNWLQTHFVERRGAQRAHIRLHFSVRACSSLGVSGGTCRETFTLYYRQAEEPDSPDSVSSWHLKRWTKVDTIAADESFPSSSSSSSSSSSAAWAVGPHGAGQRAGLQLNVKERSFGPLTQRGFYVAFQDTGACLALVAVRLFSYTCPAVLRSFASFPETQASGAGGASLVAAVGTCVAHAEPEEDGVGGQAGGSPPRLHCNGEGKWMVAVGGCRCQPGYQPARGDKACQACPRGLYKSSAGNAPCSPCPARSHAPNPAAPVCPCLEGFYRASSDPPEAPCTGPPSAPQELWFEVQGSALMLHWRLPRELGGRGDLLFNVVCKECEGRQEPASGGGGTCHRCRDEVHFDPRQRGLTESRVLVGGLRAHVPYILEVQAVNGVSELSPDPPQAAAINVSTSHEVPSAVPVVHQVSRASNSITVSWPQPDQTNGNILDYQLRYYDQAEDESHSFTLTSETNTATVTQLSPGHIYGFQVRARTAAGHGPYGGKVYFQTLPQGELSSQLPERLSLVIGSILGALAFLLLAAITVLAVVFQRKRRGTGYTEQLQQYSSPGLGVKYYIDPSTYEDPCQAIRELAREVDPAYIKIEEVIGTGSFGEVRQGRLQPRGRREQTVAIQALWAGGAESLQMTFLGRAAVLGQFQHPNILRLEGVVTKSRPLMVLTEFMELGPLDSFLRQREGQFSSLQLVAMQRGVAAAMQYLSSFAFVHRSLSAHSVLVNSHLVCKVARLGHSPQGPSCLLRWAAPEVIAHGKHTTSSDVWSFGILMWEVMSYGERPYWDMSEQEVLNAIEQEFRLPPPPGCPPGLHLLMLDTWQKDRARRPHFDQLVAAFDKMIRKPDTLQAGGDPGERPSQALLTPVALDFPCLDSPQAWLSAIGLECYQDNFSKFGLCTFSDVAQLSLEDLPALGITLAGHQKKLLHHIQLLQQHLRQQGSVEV

UniProt Q16513 = target: UniProt Q16513
DYRK2 = target: T2, DYRK2 (UniProt Q92630)
T2 sequence (whole entry): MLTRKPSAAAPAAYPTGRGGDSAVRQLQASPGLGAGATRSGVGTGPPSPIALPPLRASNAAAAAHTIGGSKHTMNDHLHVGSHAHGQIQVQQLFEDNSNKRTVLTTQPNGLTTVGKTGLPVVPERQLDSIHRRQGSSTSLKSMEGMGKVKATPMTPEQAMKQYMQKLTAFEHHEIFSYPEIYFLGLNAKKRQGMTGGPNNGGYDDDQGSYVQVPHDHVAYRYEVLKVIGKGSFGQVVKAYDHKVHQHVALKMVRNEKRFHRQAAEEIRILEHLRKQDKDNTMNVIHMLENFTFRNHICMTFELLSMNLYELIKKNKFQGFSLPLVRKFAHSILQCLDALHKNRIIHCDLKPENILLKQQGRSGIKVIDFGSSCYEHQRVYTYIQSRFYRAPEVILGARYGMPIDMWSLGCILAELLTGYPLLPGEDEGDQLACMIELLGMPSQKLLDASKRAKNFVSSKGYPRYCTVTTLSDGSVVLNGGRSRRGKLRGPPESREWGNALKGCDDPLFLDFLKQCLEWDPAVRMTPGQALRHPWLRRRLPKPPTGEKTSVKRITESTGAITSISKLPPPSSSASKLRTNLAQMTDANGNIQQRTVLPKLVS

SRPK2 = SRPK2 (UniProt P78362)
UniProt Q9HCP0 = target: UniProt Q9HCP0
UniProt Q9NYL2 = target: UniProt Q9NYL2
FER = FER (UniProt P16591)
UniProt P25098 = target: T3, UniProt P25098
T3 sequence (whole entry): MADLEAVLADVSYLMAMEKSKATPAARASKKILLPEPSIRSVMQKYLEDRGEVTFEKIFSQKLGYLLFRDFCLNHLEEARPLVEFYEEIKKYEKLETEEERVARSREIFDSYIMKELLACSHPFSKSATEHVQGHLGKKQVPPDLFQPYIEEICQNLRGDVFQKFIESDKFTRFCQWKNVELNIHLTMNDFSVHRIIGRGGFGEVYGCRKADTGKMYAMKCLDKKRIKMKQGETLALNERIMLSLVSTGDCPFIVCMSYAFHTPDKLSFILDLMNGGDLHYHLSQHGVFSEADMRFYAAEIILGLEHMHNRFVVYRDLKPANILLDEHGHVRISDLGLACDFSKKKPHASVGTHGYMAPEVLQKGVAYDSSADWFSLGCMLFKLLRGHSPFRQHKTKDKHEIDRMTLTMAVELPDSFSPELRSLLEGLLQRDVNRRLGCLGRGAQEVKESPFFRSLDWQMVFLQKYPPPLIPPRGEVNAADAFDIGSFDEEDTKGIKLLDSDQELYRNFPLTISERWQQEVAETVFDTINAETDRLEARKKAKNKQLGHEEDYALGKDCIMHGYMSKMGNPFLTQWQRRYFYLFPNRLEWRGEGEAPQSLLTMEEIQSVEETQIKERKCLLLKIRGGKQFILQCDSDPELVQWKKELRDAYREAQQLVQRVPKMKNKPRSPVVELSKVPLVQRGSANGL

UniProt Q9BUB5 = target: UniProt Q9BUB5
ROCK2 = ROCK2 (UniProt O75116)

Measured: pIC50

UniProt Q16513, sequence (Q16513 whole entry, looked up): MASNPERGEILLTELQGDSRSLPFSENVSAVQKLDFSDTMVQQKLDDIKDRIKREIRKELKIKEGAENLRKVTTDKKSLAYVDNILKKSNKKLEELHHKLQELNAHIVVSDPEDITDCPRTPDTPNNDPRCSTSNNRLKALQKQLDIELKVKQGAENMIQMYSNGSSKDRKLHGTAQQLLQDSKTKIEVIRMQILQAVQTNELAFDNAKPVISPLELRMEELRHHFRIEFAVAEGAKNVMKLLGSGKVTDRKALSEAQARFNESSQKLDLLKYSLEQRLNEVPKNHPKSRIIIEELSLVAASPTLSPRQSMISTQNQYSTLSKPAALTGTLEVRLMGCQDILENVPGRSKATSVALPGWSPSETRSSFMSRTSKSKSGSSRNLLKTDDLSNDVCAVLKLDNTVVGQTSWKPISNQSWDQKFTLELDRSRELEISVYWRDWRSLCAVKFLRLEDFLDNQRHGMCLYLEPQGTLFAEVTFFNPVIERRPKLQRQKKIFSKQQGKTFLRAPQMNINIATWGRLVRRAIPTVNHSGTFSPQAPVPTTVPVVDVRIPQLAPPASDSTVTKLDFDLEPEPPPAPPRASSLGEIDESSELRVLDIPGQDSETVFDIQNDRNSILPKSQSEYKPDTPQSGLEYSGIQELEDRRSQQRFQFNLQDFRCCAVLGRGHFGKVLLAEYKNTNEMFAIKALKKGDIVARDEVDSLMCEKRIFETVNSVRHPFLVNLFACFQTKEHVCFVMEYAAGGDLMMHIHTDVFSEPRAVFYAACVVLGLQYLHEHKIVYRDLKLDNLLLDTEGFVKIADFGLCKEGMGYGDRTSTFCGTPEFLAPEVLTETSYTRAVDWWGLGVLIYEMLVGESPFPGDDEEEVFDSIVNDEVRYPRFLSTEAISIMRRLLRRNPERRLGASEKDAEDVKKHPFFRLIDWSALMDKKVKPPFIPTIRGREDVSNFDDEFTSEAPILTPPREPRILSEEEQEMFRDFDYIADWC
UniProt P49841, sequence (P49841 whole entry, looked up): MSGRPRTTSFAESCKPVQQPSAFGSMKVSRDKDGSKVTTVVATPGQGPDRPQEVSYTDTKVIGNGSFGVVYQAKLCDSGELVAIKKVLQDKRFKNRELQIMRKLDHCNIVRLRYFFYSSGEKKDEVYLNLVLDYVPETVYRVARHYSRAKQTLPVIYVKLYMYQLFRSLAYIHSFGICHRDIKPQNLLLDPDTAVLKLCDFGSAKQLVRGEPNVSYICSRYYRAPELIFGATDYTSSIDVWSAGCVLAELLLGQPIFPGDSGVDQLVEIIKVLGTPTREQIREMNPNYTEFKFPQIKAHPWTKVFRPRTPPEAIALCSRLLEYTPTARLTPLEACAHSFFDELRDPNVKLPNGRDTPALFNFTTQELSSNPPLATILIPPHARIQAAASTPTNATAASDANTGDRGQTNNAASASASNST
MAP4K5, sequence (Q9Y4K4 whole entry, looked up): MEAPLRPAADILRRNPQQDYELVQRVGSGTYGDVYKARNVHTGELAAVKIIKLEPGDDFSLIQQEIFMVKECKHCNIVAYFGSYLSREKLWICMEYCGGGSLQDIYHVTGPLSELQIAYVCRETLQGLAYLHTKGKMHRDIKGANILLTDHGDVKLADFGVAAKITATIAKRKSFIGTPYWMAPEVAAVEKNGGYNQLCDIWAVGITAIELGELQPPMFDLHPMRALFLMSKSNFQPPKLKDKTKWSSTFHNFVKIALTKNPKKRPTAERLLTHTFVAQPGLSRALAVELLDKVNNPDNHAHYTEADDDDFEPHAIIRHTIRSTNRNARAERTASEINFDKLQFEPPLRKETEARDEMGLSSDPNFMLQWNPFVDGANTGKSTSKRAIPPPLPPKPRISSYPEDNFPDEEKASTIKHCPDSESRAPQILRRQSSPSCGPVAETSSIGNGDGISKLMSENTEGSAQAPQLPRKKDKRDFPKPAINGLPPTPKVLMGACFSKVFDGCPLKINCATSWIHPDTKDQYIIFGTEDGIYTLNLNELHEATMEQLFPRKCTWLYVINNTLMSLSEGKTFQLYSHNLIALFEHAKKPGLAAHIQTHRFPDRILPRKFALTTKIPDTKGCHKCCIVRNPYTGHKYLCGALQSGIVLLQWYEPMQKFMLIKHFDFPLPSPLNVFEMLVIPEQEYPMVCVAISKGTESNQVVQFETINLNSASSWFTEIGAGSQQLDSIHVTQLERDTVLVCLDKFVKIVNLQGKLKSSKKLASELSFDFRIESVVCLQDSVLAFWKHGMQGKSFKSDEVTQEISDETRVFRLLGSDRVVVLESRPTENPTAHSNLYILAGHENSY
UniProt Q9NYL2, sequence (Q9NYL2 whole entry, looked up): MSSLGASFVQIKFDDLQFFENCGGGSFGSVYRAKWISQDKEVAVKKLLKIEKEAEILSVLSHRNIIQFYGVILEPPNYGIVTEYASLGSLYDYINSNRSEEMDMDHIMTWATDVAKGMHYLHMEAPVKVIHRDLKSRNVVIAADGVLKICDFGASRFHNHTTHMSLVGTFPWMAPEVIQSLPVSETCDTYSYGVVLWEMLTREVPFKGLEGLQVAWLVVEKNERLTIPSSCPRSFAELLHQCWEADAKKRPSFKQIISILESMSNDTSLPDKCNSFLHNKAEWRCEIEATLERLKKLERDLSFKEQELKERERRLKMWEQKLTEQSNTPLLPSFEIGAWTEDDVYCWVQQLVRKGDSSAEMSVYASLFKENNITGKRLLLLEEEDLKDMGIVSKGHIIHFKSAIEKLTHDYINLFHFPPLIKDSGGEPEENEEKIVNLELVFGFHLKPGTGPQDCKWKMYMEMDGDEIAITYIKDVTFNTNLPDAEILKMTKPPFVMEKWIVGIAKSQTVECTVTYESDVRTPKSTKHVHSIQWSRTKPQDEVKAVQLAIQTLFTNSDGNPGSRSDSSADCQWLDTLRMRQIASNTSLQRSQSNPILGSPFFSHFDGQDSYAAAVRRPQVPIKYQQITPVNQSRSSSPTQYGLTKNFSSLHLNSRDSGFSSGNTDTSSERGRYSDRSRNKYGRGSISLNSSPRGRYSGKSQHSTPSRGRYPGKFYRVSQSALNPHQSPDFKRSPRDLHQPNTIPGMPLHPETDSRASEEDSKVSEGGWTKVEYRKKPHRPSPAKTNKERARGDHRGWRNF
UniProt Q9HCP0, sequence (Q9HCP0 whole entry, looked up): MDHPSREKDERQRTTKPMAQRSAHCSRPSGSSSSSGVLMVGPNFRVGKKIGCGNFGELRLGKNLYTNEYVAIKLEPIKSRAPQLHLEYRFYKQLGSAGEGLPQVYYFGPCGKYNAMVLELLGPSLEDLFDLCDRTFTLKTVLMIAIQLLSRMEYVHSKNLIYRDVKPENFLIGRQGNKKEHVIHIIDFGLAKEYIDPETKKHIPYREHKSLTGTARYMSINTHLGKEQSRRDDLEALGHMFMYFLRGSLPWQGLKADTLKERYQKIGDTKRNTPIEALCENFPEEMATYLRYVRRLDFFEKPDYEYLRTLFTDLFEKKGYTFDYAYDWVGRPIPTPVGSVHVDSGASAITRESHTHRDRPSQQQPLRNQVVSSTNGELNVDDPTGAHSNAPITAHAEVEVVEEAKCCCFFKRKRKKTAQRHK
ROCK2, sequence (O75116 whole entry, looked up): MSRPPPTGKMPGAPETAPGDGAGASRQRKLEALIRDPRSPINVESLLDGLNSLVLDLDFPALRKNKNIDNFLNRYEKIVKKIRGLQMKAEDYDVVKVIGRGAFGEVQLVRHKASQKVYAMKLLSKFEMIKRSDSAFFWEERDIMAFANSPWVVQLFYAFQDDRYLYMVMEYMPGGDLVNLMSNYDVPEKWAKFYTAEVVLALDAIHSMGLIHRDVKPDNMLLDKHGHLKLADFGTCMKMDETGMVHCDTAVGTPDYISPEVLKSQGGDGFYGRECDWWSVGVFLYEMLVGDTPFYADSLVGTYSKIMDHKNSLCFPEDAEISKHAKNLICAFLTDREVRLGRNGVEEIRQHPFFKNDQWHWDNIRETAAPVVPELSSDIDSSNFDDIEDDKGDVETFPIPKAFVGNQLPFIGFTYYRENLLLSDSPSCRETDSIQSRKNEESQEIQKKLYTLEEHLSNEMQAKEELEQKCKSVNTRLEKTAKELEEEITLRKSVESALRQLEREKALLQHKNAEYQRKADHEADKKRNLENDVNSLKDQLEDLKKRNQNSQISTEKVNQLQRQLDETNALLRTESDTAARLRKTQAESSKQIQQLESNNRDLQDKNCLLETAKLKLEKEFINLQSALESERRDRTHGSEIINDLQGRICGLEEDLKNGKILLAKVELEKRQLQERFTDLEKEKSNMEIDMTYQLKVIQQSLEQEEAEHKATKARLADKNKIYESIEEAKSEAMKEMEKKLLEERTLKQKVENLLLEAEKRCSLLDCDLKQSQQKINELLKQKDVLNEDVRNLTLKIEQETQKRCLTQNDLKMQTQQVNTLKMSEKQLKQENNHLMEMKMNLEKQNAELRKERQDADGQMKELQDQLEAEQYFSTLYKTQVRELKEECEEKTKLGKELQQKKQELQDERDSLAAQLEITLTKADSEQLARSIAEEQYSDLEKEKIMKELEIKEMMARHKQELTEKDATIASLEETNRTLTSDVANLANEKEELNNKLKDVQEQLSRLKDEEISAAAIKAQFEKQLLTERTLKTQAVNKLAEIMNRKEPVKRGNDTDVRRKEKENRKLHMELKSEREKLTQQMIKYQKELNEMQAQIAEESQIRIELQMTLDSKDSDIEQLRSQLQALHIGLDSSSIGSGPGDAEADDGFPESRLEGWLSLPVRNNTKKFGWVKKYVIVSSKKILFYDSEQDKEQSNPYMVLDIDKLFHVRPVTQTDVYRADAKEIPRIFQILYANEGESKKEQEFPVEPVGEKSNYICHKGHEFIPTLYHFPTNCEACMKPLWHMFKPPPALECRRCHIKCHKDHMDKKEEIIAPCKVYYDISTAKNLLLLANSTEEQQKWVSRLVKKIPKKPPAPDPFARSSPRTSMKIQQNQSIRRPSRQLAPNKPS

CCc1cnn2c(NCc3ccc[n+]([O-])c3)cc(N3CCCC[C@H]3CCO)nc12 [dinaciclib]
< 4.52: all assays above
